According to patent US20230263822A1, “MODULATION OF FACTOR 11 EXPRESSION” (Ionis Pharmaceuticals, Inc., priority 2008, published 2023):

What was measured:
human Factor 11 mRNA [1] = assay: Dose-dependent inhibition of human Factor 11 in HepG2 cells, lipofectin 2.34-75 nM (Example 5); assay type: cell-based; details: for percent inhibition of human Factor 11 mRNA relative to untreated control cells: ~16 hours
Procedure: Cells were plated at a density of 10,000 cells per well and transfected using lipofectin reagent with 2.34 nM, 4.69 nM, 9.375 nM, 18.75 nM, 37.5 nM, and 75 nM concentrations of antisense oligonucleotide, as specified in Table 11. After a treatment period of approximately 16 hours, RNA was isolated from the cells and human Factor 11 mRNA levels were measured by quantitative real-time PCR. Human Factor 11 primer probe set RTS 2966 was used to measure mRNA levels. Factor 11 mRNA levels were adjusted according to total RNA content, as measured by RIBOGREEN. Results are presented as percent inhibition of human Factor 11, relative to untreated control cells.

human Factor 11 mRNA [2] = assay: Dose-dependent inhibition of human Factor 11 in HepB3 cells, electroporation (Example 7); assay type: cell-based; details: for percent inhibition of human Factor 11 mRNA relative to untreated control cells: ~16 hours
Procedure: The gapmers were also transfected via electroporation and their dose dependent inhibition of human Factor 11 mRNA was measured. Cells were plated at a density of 20,000 cells per well and transfected via electroporation with 41.15 nM, 123.457 nM, 370.37 nM, 1111.11 nM, 3333.33 nM, and 10,000 nM concentrations of antisense oligonucleotide, as specified in Table 15. After a treatment period of approximately 16 hours, RNA was isolated from the cells and human Factor 11 mRNA levels were measured by quantitative real-time PCR. Human Factor 11 primer probe set RTS 2966 was used to measure mRNA levels. Factor 11 mRNA levels were adjusted according to total RNA content, as measured by RIBOGREEN. Results are presented as percent inhibition of human Factor 11, relative to untreated control cells.

[3] = Tolerability in CD1 mice: organ weight (Example 33); assay type: in vivo; details: 50 mg/kg s.c. twice a week, vs PBS control, normalized to body weight
Procedure: Three days after the last dose was administered to all groups, the mice were sacrificed.

[4] = Tolerability in Sprague-Dawley rats: body weight and organ weight (Example 35); assay type: in vivo; details: 50 mg/kg s.c. twice per week for 6 weeks; for Percent change: Body weight: percent change over the weights at the start of the study; for Percent change in organ weight: Kidney / Percent change in organ weight: Liver / Percent change in organ weight: Spleen: vs saline control, normalized to body weight
Text: Urine samples were taken before the start of treatment.
The body weights are presented in Table 71 and are expressed as a percent change over the weights taken at the start of the study.

[5] = design: species or system CD1 mice; details: mouse, in vivo
Procedure: Five mice from each group were sacrificed 3 days, 28 days and 56 days following the final dose. Livers were harvested for analysis.
The concentration of the full-length oligonucleotide as well as the total oligonucleotide concentration (including the degraded form) was measured. The method used is a modification of previously published methods (Leeds et al., 1996; Geary et al., 1999) which consist of a phenol-chloroform (liquid-liquid) extraction followed by a solid phase extraction. An internal standard (ISIS 355868, a 27-mer 2′-O-methoxyethyl modified phosphorothioate oligonucleotide, […], designated herein as SEQ ID NO: 270) was added prior to extraction. […] Half-lives were then calculated using WinNonlin software ([…]).
The results are presented in Tables 68 and 69, expressed as μg/g liver tissue.

Row | Substance | IC50 (human Factor 11 mRNA [1]) | percent inhibition of human Factor 11 mRNA relative to untreated control cells (human Factor 11 mRNA [1]; 2.34 nM) | percent inhibition of human Factor 11 mRNA relative to untreated control cells (human Factor 11 mRNA [1]; 4.69 nM) | percent inhibition of human Factor 11 mRNA relative to untreated control cells (human Factor 11 mRNA [1]; 9.375 nM) | percent inhibition of human Factor 11 mRNA relative to untreated control cells (human Factor 11 mRNA [1]; 18.75 nM) | percent inhibition of human Factor 11 mRNA relative to untreated control cells (human Factor 11 mRNA [1]; 37.5 nM) | percent inhibition of human Factor 11 mRNA relative to untreated control cells (human Factor 11 mRNA [1]; 75 nM) | IC50 (human Factor 11 mRNA [2]) | percent inhibition of human Factor 11 mRNA relative to untreated control cells (human Factor 11 mRNA [2]; 41.15 nM) | percent inhibition of human Factor 11 mRNA relative to untreated control cells (human Factor 11 mRNA [2]; 123.457 nM) | percent inhibition of human Factor 11 mRNA relative to untreated control cells (human Factor 11 mRNA [2]; 370.37 nM) | percent inhibition of human Factor 11 mRNA relative to untreated control cells (human Factor 11 mRNA [2]; 1111.11 nM) | percent inhibition of human Factor 11 mRNA relative to untreated control cells (human Factor 11 mRNA [2]; 3333.33 nM) | percent inhibition of human Factor 11 mRNA relative to untreated control cells (human Factor 11 mRNA [2]; 10000 nM) | Percent change in kidney weight ([3]; 2 weeks) | Percent change in liver weight ([3]; 2 weeks) | Percent change in spleen weight ([3]; 2 weeks) | Percent change in kidney weight ([3]; 4 weeks) | Percent change in liver weight ([3]; 4 weeks) | Percent change in spleen weight ([3]; 4 weeks) | further results
1 | 416864 (antisense GGCAGCGGACGGCATTGGTG; 5-10-5 gapmer, further chemistry not given here) [compound 416864] | 15 nM | 13% | 34% | 42% | 65% | 68% | 80% | 2200 nM | 4% | 3% | 6% | 35% | 75% | 87% | −4% | −2% | −10% | −9% | +2% | −2% | Percent change in kidney weight ([3]; 6 weeks): −15%; Percent change in liver weight ([3]; 6 weeks): −5%; Percent change in spleen weight ([3]; 6 weeks): −6%; Percent change: Body weight [4]: −24%; Percent change in organ weight: Kidney [4]: +16%; Percent change in organ weight: Liver [4]: +16%; Percent change in organ weight: Spleen [4]: +204%; Half-Life in the liver [5]: 13 days
2 | 416999 (antisense GCACAGTTTCTGGCAGGCCT; 2-13-5 gapmer chemistry, further chemistry not given here) [compound 416999] | 14 nM | 10% | 26% | 42% | 62% | 72% | 80% | 160 nM | 31% | 45% | 62% | 78% | 94% | 97% | −9% | +13% | +7% | −6% | +30% | +22% | Percent change in kidney weight ([3]; 6 weeks): −7%; Percent change in liver weight ([3]; 6 weeks): +47%; Percent change in spleen weight ([3]; 6 weeks): +38%; Percent change: Body weight [4]: −37%; Percent change in organ weight: Kidney [4]: +71%; Percent change in organ weight: Liver [4]: +51%; Percent change in organ weight: Spleen [4]: +405%; Half-Life in the liver [5]: 9 days
3 | 416825 (antisense GCCCTTCATGTCTAGGTCCA; 5-10-5 gapmer, further chemistry not given here) [compound 416825] | 13 nM | 4% | 22% | 39% | 57% | 79% | 89% | 160 nM | 32% | 40% | 48% | 75% | 90% | 92% | −12% | +5% | −12% | −12% | +22% | +19% | Percent change in kidney weight ([3]; 6 weeks): −11%; Percent change in liver weight ([3]; 6 weeks): +13%; Percent change in spleen weight ([3]; 6 weeks): +21%; Percent change: Body weight [4]: −18%; Percent change in organ weight: Kidney [4]: +25%; Percent change in organ weight: Liver [4]: +20%; Percent change in organ weight: Spleen [4]: +245%; Half-Life in the liver [5]: 16 days
4 | 416892 (antisense GCCCTTCATGTCTAGGTCCA; 3-14-3 chimeric gapmer, further chemistry not given here) [compound 416892] | 9 nM | 14% | 34% | 49% | 70% | 84% | 93% | 610 nM | 9% | 12% | 28% | 65% | 89% | 98% | +2% | +35% | +24% | −3% | +88% | +30% | Percent change in kidney weight ([3]; 6 weeks): +19%; Percent change in liver weight ([3]; 6 weeks): +95%; Percent change in spleen weight ([3]; 6 weeks): +65%; Percent change: Body weight [4]: −39%; Percent change in organ weight: Kidney [4]: +32%; Percent change in organ weight: Liver [4]: +38%; Percent change in organ weight: Spleen [4]: +151%; Half-Life in the liver [5]: 12 days
5 | 416826 (antisense ATGCCCTTCATGTCTAGGTC; 5-10-5 gapmer, further chemistry not given here) [compound 416826] | 15 nM | 15% | 22% | 32% | 54% | 76% | 90% | 780 nM | 0% | 0% | 34% | 61% | 87% | 92% | −13% | +10% | −12% | −7% | +32% | −5% | Percent change in kidney weight ([3]; 6 weeks): −22%; Percent change in liver weight ([3]; 6 weeks): +33%; Percent change in spleen weight ([3]; 6 weeks): +22%; Percent change: Body weight [4]: −40%; Percent change in organ weight: Kidney [4]: +44%; Percent change in organ weight: Liver [4]: +81%; Percent change in organ weight: Spleen [4]: +537%; Half-Life in the liver [5]: 13 days
